Molecular target: T1, Phospholipase A2, membrane associated (Homo sapiens, UniProt P14555)
T1 sequence (P14555 whole entry): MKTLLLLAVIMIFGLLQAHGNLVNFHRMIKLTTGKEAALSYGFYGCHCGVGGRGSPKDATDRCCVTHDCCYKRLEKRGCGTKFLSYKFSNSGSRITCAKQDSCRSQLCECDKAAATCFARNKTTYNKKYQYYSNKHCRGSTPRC
Test: Inhibition of sPLA2-2A in HEK293 cell
Format: cell-based

Row | SMILES | IC50 [µM]
1 | O=c1cc(-c2ccc(-c3c(-c4ccccc4)oc4ccccc4c3=O)cc2)oc2ccccc12 | 23.2
2 | O=c1cc(-c2ccc(-c3ccc(-c4cc(=O)c5ccccc5o4)cc3)cc2)oc2ccccc12 | 3
3 | O=c1cc(-c2ccc(-c3ccc4oc(-c5ccccc5)cc(=O)c4c3)cc2)oc2ccccc12 | 63.9
4 | O=c1cc(-c2ccc(-c3cccc(-c4cc(=O)c5ccccc5o4)c3)cc2)oc2ccccc12 | 15.5
5 | O=c1cc(-c2cccc(-c3ccc4oc(-c5ccccc5)cc(=O)c4c3)c2)oc2ccccc12 | 19.9
6 | O=c1cc(-c2ccccc2)oc2ccc(-c3ccc4oc(-c5ccccc5)cc(=O)c4c3)cc12 | 69.3
7 | O=c1cc(-c2ccc(O)c(-c3c(O)cc(O)c4c(=O)cc(-c5ccc(O)cc5)oc34)c2)oc2cc(O)cc(O)c12 [AMENTOFLAVONE] | 23.8
8 | O=c1cc(-c2ccc(Oc3cc(-c4cc(=O)c5c(O)cc(O)cc5o4)ccc3O)cc2)oc2cc(O)cc(O)c12 [OCHNAFLAVONE] | 3.5

Reference: ChEMBL document CHEMBL1146997, “Synthesis of phospholipase A2 inhibitory biflavonoids” (Bioorg Med Chem Lett, 2006)
